We go through 22 compounds from patent US8871929B2, “Fused-imidazoyl compounds useful as antimicrobial agents” (Merck Sharp & Dohme Corp., priority 2010, dated 2014).

The structures appear in SMILES notation. Values after ≈ are worked out from the molar mass of the structure shown.

This assay concerns Staphylococcus aureus ATCC29213. Briefly: Susceptibility testing (MIC determination), broth microdilution. It counts as cell-based. The conditions noted are these: Mueller Hinton broth, 96-well plate, overnight incubation at 35° C., read-out: MIC Staph. aureus ATCC-29213. The protocol: Compounds useful in the method of the invention were investigated for their utility as antimicrobial agents in the following assay. Susceptibility testing (MIC determinations) was performed using the standard broth microdilution methodology precisely as described in the Clinical Laboratory Standards Institute Document M7-A6; Methods for Dilution Antimicrobial Susceptibility Tests for Bacteria That Grow Aerobically; […] To perform the test, a series of 0.1 ml media in a 96-well plate is prepared with Mueller Hinton broth to which various concentrations of the test compound are added. The media are then inoculated with a standardized suspension of the test organism, Staphylococcus aureus ATCC29213. After overnight incubation at 35° C., the tests are examined and the minimal inhibitory concentration (MIC) is determined. MIC is defined as the lowest concentration of an antimicrobial agent that prevents visible growth of a microorganism in the broth microdilution susceptibility test
Turning to `O=C(CNc1c(-c2ccc(N3CCCC3)cc2)nc2ccccn12)N1CCC(c2cccc3ccccc23)CC1` [Compound 44], the MIC was found to be 4 µg/mL (≈ 7.55 µM).
The value for `O=C(CNc1c(-c2ccc(N3CCOCC3)cc2)nc2cc(C(F)(F)F)ccn12)N1CCN(c2c(Cl)cncc2Cl)CC1` [Compound 82] was 0.125 µg/mL (≈ 0.197 µM); that for `CCc1ccc(-c2nc3cnccn3c2NCC(=O)N2CCN(c3c(Cl)cccc3Cl)CC2)cc1` [Compound 70] was 4 µg/mL (≈ 7.85 µM); that for `O=C(CNc1c(-c2ccc(N3CCOCC3)cc2)nc2ccc(Cl)cn12)N1CCN(c2c(Cl)cncc2Cl)CC1` [Compound 81] was 0.25 µg/mL (≈ 0.416 µM).
For `Cc1cccc(N2CCN(C(=O)CNc3c(-c4ccc(N5CCCC5)cc4)nc4ccccn34)CC2)c1C` [Compound 29], the MIC worked out at 5 µg/mL (≈ 9.83 µM).
Consider `O=C(CNc1c(-c2ccc(N3CCOCC3)cc2)nc2ccc(C(F)(F)F)cn12)N1CCN(c2c(Cl)cncc2Cl)CC1` [Compound 77], for which the MIC came out at 0.06 µg/mL (≈ 0.0946 µM).
On to `Cc1cccc(C)c1N1CCN(C(=O)CNc2c(-c3ccc(N(C)C)cc3)nc3ccccn23)CC1` [Compound 56], for which the minimal inhibitory concentration (MIC) came out at 2 µg/mL (≈ 4.14 µM).
The value for `CC(C)c1ccc(-c2nc3cnccn3c2NCC(=O)N2CCN(c3c(Cl)cccc3Cl)CC2)cc1` [Compound 65] was 1 µg/mL (≈ 1.91 µM).
Then `O=C(CNc1c(-c2ccc(N3CCCC3)cc2)nc2ccccn12)N1CCN(c2ccccc2Cl)CC1` [Compound 30], with 5 µg/mL (≈ 9.71 µM); and `CCc1ccc(-c2nc3cnccn3c2NCC(=O)N2CCN(c3c(Cl)cccc3Cl)CC2)o1` [Compound 23], with 8 µg/mL (≈ 16 µM); and `Cc1ccn2c(NCC(=O)N3CCN(c4c(Cl)cncc4Cl)CC3)c(-c3ccc(N4CCOCC4)cc3)nc2c1` [Compound 74], with 0.06 µg/mL (≈ 0.103 µM).
Then `CN(C)c1ccc(-c2nc3ccccn3c2NCC(=O)N2CCN(c3c(Cl)cccc3Cl)CC2)cc1` [Compound 57], with 0.25 µg/mL (≈ 0.478 µM); and `O=C(CNc1c(-c2ccc(N3CCCC3)cc2)nc2cnccn12)N1CCN(c2ccccc2C(F)(F)F)CC1` [Compound 72], with 8 µg/mL (≈ 14.6 µM); and `N#Cc1cccnc1N1CCN(C(=O)CNc2c(-c3ccc(N4CCCC4)cc3)nc3ccccn23)CC1` [Compound 36], with 0.625 µg/mL (≈ 1.23 µM).
`CCN1CCc2cc(-c3nc4ccccn4c3NCC(=O)N3CCN(c4c(Cl)cncc4Cl)CC3)ccc21` [Compound 2]: the MIC stood at 0.125 µg/mL (≈ 0.227 µM).
The value for `CN(C)c1ccc(-c2nc3cnccn3c2NCC(=O)N2CCN(c3c(Cl)cccc3Cl)CC2)cc1` [Compound 61] was 0.25 µg/mL (≈ 0.477 µM).
As to `CSc1ccccc1N1CCN(C(=O)CNc2c(-c3ccc(N4CCCC4)cc3)nc3ccccn23)CC1` [Compound 39], the MIC came to 1 µg/mL (≈ 1.9 µM).
Then `Cc1ccc2nc(-c3ccc(N4CCOCC4)nc3)c(NCC(=O)N3CCN(c4c(Cl)cncc4Cl)CC3)n2c1` [Compound 6], with 0.25 µg/mL (≈ 0.43 µM); and `N#Cc1ccccc1N1CCN(C(=O)CNc2c(-c3ccc(N4CCCC4)cc3)nc3ccccn23)CC1` [Compound 35], with 0.313 µg/mL (≈ 0.619 µM); and `CN(C)c1ccc(-c2nc3cnccn3c2NCC(=O)N2CCN(c3c(Cl)cncc3Cl)CC2)cn1` [Compound 12], with 0.5 µg/mL (≈ 0.95 µM).
Then `Cc1ccc2nc(-c3ccc(N4CCOCC4)cc3)c(NCC(=O)N3CCN(c4c(Cl)cncc4Cl)CC3)n2c1` [Compound 78], with 0.125 µg/mL (≈ 0.215 µM); and `O=C(CNc1c(-c2ccc(N3CCOCC3)nc2)nc2cccc(Cl)n12)N1CCN(c2c(Cl)cncc2Cl)CC1` [Compound 1], with 0.06 µg/mL (≈ 0.0997 µM).

By MIC is commonly meant the lowest concentration that inhibits growth of the organism.
